How the values were obtained:
Format in all cases: in vivo
cotton = assay: Pouch assay; root and shoot length of cotton; settings: 0 ppm PESA salt; for Shoot Length: untreated 4.7; for Root Length: untreated 7.7
Description: (§1) Seeds were placed in germination pouches consisting of germination paper hydrated with sterile water that was an insert in a gas-permeable 16×14 cm plastic pouch (CYG Pouch; Mega International, St. Paul, Minn.). In these examples, in pouch solution evaluation, PESA sodium salt or other active ingredients were added to the sterile water in the pouch. The pouches were arranged in a completely randomized block design in growth racks and placed in 19-liter polycarbonate food storage containers (Rubbermaid Commercial Products, Winchester, Va.). The sealed containers were held in an upright growth cabinet maintained at 25 C with a 12 hour light: 12 hour dark photoperiod. After 6 days, the containers were removed from the growth cabinet, and the lengths of the roots and shoot were measured.

rice cv. Cheniere [1] = assay: Pouch assay, PESA salt and herbicide added to the pouch solution; root and shoot length
Description: Alternatively, PESA salt and herbicides may be added separately to the sterile water in the growth pouch.
as §1

rice cv. Nipponbare = assay: Hydroponic assay; total root length and shoot length; settings: for Shoot Length / Total Root Length: 0 ppm PESA salt
Description: Where hydroponically-grown rice was used in studies, the seeds were pre-incubated in water at 30 C for 2 days to stimulate germination. Three seeds were placed on a float and cultivated hydroponically in a test tube (25 mm×200 mm), which contained 50 ml of Kimura B nutrient solution at ⅛th strength supplemented with herbicides and PESA sodium salt. The exposure of the roots to the light was prevented by wrapping the tubes with aluminum foil. The rice seedlings were incubated in a growth cabinet at 25 C under continuous light for 14 days, and the total root length and shoot length were measured. Total root length (cm) was the root length/plant determined following scanning with WinRhizo software (Regent Instruments INC, Toronto, Canada).

rice cv. Cheniere [2] = assay: Emergence of seed-treated rice seeded onto soil previously treated with herbicide; settings: no seed treatment (Control), untreated 90
From the text: Seed was sieved with a screen of mesh size appropriate to remove broken seeds and small trash. Cracked or otherwise damaged seeds were removed. The seed was well mixed, and 50 g samples were weighed into small plastic trays. […] A fungicide (Maxim XL; Syngenta Agricultural Products, Greensboro, N.C.), a polymeric binder (CF-Clear; Becker-Underwood, Ames, Iowa), and a colorant (Color Coat Red; Becker-Underwood, Ames, Iowa) were also included in the slurry at label rates. A small aliquot of this slurry was applied to the seed using the Hege 11 coater (Wintersteiger, Salt Lake City, Utah) with a six-inch bowl at a slurry rate of 30 ounces per 100 lbs of seed. The slurry was deposited drop-wise on the spinning disk atomizer using a syringe.
Rice cv. […] It was then seeded onto soil which was previously sprayed with the pendimethalin herbicide Prowl H2O® (BASF Agricultural Products, Research Triangle Park, N.C.).
After seed treatment, rice was seeded into soil previously treated with the dithiopyr herbicide Dimension®.
Rice seed treated with PESA was tested for its ability to protect rice from the herbicide Roundup WeatherMax® (glyphosate). After seed treatment, rice was seeded into soil previously treated with the Roundup WeatherMax®.

[3] = 10 ppm dithiopyr, treatment none (Control), 30 ppm PESA salt, 10 ppm GA3 or both, untreated 3.9
[4] = 10 ppm dithiopyr, treatment none (Control), 30 ppm PESA salt, 10 ppm GA3 or both, untreated 9.5
[5] = 50 ppm pendimethalin, treatment none (Control), 30 ppm PESA salt, 10 ppm GA3 or both, untreated 3.9
[6] = 50 ppm pendimethalin, treatment none (Control), 30 ppm PESA salt, 10 ppm GA3 or both, untreated 9.7
[7] = pendimethalin (Table 4, 50 ppm)

**Q.** With COc1nc(C)nc(NC(=O)NS(=O)(=O)c2ccccc2Cl)n1 [Chlorsulfuron, chlorsulfuron, reference compound] as the compound, how does the “Shoot Length” value (cotton; 1 ppm chlorsulfuron) read?
**A.** 2.3 cm

**Q.** And the “Root Length” value (cotton; 1 ppm chlorsulfuron)?
**A.** 2.1 cm

**Q.** And the “Shoot Length” value (cotton; 10 ppm chlorsulfuron)?
**A.** 1.5 cm

**Q.** What about the “Root Length” value (cotton; 10 ppm chlorsulfuron) of the same compound?
**A.** 1.8 cm

**Q.** And the “Shoot Length” value (cotton; 100 ppm chlorsulfuron)?
**A.** 1.7 cm

**Q.** And the “Root Length” value (cotton; 100 ppm chlorsulfuron)?
**A.** 1.9 cm

**Q.** What about the “Shoot Length” value (rice cv. Cheniere [1]; 10 ppm chlorsulfuron, 0 ppm PESA salt, untreated 4.8) of the same compound?
**A.** 0.9 cm

**Q.** And the “Root Length” value (rice cv. Cheniere [1]; 10 ppm chlorsulfuron, 0 ppm PESA salt, untreated 11.6)?
**A.** 0.6 cm

**Q.** What about the “Shoot Length” value (rice cv. Cheniere [1]; 100 ppm chlorsulfuron, 0 ppm PESA salt, untreated 4.8) of the same compound?
**A.** 0.7 cm

**Q.** And the “Root Length” value (rice cv. Cheniere [1]; 100 ppm chlorsulfuron, 0 ppm PESA salt, untreated 11.6)?
**A.** 0.3 cm

**Q.** What does the source list for C#CCOC(=O)[C@@H](C)Oc1ccc(Oc2ncc(Cl)cc2F)cc1 [Clodinafop-propargyl, clodinafop-propargyl, reference compound]?
**A.** Shoot Length (rice cv. Nipponbare; 0.3 ppm clodinafop-propargyl, untreated 10.6): 10.2 cm; Total Root Length (rice cv. Nipponbare; 0.3 ppm clodinafop-propargyl, untreated 52.1): 45.3 cm; Shoot Length (rice cv. Nipponbare; 1 ppm clodinafop-propargyl, untreated 10.6): 10.9 cm; Total Root Length (rice cv. Nipponbare; 1 ppm clodinafop-propargyl, untreated 52.1): 11.5 cm; root length reduced by (rice cv. Nipponbare; 3 ppm clodinafop-propargyl): 91%; Shoot Length (rice cv. Nipponbare; 3 ppm clodinafop-propargyl, untreated 10.6): 7.5 cm; Total Root Length (rice cv. Nipponbare; 3 ppm clodinafop-propargyl, untreated 52.1): 4.7 cm

**Q.** What does the source list for COc1c(Cl)ccc(Cl)c1C(=O)O [Dicamba, dicamba, reference compound]?
**A.** Shoot Length (rice cv. Nipponbare; 0.01 ppm dicamba, untreated 11.4): 10.6 cm; Total Root Length (rice cv. Nipponbare; 0.01 ppm dicamba, untreated 44.9): 21.3 cm; root length reduced by (rice cv. Nipponbare; 0.1 ppm dicamba): 87%; shoot length reduced by (rice cv. Nipponbare; 0.1 ppm dicamba): 61%; Shoot Length (rice cv. Nipponbare; 0.1 ppm dicamba, untreated 11.4): 4.5 cm; Total Root Length (rice cv. Nipponbare; 0.1 ppm dicamba, untreated 44.9): 6.0 cm; Shoot Length (rice cv. Nipponbare; 1 ppm dicamba, untreated 11.4): 3.8 cm; Total Root Length (rice cv. Nipponbare; 1 ppm dicamba, untreated 44.9): 0.0 cm

**Q.** CSC(=O)c1c(C(F)F)nc(C(F)(F)F)c(C(=O)SC)c1CC(C)C [Dithiopyr, dithiopyr, reference compound] was tested. Which “Shoot Length” value (rice cv. Cheniere [1]; 1 ppm dithiopyr, 0 ppm PESA salt, untreated 4.0) did it give?
**A.** 4.3 cm

**Q.** What about the “Root Length” value (rice cv. Cheniere [1]; 1 ppm dithiopyr, 0 ppm PESA salt, untreated 9.5) of the same compound?
**A.** 10.0 cm

**Q.** What about the “root length reduced by” value (rice cv. Cheniere [1]; 10 ppm dithiopyr) of the same compound?
**A.** 30%

**Q.** And the “Shoot Length” value (rice cv. Cheniere [1]; 10 ppm dithiopyr, 0 ppm PESA salt, untreated 4.0)?
**A.** 3.5 cm

**Q.** And the “Root Length” value (rice cv. Cheniere [1]; 10 ppm dithiopyr, 0 ppm PESA salt, untreated 9.5)?
**A.** 6.7 cm

**Q.** And the “Shoot Length” value (rice cv. Cheniere [1]; [3])?
**A.** 3.0 cm

**Q.** What about the “Root Length” value (rice cv. Cheniere [1]; [4]) of the same compound?
**A.** 4.1 cm

**Q.** And the “Shoot Length” value (rice cv. Cheniere [1]; 100 ppm dithiopyr, 0 ppm PESA salt, untreated 4.0)?
**A.** 1.2 cm

**Q.** And the “Root Length” value (rice cv. Cheniere [1]; 100 ppm dithiopyr, 0 ppm PESA salt, untreated 9.5)?
**A.** 0.4 cm

**Q.** Which “Shoot Length” value (rice cv. Nipponbare; 0.1 ppm flumioxazin, untreated 10.6) does the source give for C#CCN1C(=O)COc2cc(F)c(N3C(=O)C4=C(CCCC4)C3=O)cc21 [Flumioxazin, flumioxazin, reference compound] here?
**A.** 10.7 cm

**Q.** And the “Total Root Length” value (rice cv. Nipponbare; 0.1 ppm flumioxazin, untreated 52.1)?
**A.** 41.5 cm

**Q.** And the “Shoot Length” value (rice cv. Nipponbare; 0.3 ppm flumioxazin, untreated 10.6)?
**A.** 11.0 cm

**Q.** And the “Total Root Length” value (rice cv. Nipponbare; 0.3 ppm flumioxazin, untreated 52.1)?
**A.** 64.1 cm

**Q.** What about the “root length reduced by” value (rice cv. Nipponbare; 1 ppm flumioxazin) of the same compound?
**A.** 28%

**Q.** And the “shoot length reduced by” value (rice cv. Nipponbare; 1 ppm flumioxazin)?
**A.** 64%

**Q.** What about the “Shoot Length” value (rice cv. Nipponbare; 1 ppm flumioxazin, untreated 10.6) of the same compound?
**A.** 3.8 cm

**Q.** And the “Total Root Length” value (rice cv. Nipponbare; 1 ppm flumioxazin, untreated 52.1)?
**A.** 14.5 cm

**Q.** And the “Shoot Length” value (rice cv. Nipponbare; 3 ppm flumioxazin, untreated 10.6)?
**A.** 5.9 cm

**Q.** And the “Total Root Length” value (rice cv. Nipponbare; 3 ppm flumioxazin, untreated 52.1)?
**A.** 15.7 cm

**Q.** How did the “Shoot Length” value (rice cv. Cheniere [1]; 0 ppm pendimethalin, treatment 30 ppm PESA salt, 10 ppm GA3 or both, untreated 3.9) turn out when C=C1C[C@]23C[C@@]1(O)CC[C@H]2[C@@]12C=C[C@H](O)[C@@](C)(C(=O)O1)[C@H]2[C@@H]3C(=O)O [GA3, gibberellic acid, reference compound] was run?
**A.** 7.7 cm

**Q.** What about the “Root Length” value (rice cv. Cheniere [1]; 0 ppm pendimethalin, treatment 30 ppm PESA salt, 10 ppm GA3 or both, untreated 9.7) of the same compound?
**A.** 10.8 cm

**Q.** What about the “Shoot Length” value (rice cv. Cheniere [1]; [3]) of the same compound?
**A.** 5.6 cm

**Q.** And the “Root Length” value (rice cv. Cheniere [1]; [4])?
**A.** 4.7 cm

**Q.** And the “Shoot Length” value (rice cv. Cheniere [1]; [5])?
**A.** 1.5 cm

**Q.** What about the “Root Length” value (rice cv. Cheniere [1]; [6]) of the same compound?
**A.** 2.7 cm

**Q.** And the “protection of roots and shoots from pendimethalin” value (rice cv. Cheniere [1]; in the growth medium with pendimethalin (Table 4))?
**A.** only marginally effective at protecting the roots and shoots from pendimethalin

**Q.** And the “Shoot Length” value (rice cv. Cheniere [1]; no dithiopyr (Control), treatment 30 ppm PESA salt, 10 ppm GA3 or both, untreated 3.9)?
**A.** 7.0 cm

**Q.** And the “Root Length” value (rice cv. Cheniere [1]; no dithiopyr (Control), treatment 30 ppm PESA salt, 10 ppm GA3 or both, untreated 9.5)?
**A.** 10.7 cm

**Q.** With O=C(O)CNCP(=O)(O)O [Glyphosate, glyphosate, reference compound] as the compound, how does the “Percent Emergence at 9 days after planting” value (rice cv. Cheniere [2]; glyphosate 23 μg/cm2 (Roundup)) read?
**A.** 72%

**Q.** And the “Percent Emergence at 9 days after planting” value (rice cv. Cheniere [2]; glyphosate 90 μg/cm2 (Roundup))?
**A.** 12%

**Q.** With COc1cc(OC)nc(NC(=O)NS(=O)(=O)c2c(Cl)nc3ccccn23)n1 [Imazosulfuron, imazosulfuron, reference compound] as the compound, how does the “Shoot Length” value (rice cv. Nipponbare; 0.01 ppm imazosulfuron, untreated 11.4) read?
**A.** 12.6 cm

**Q.** And the “Total Root Length” value (rice cv. Nipponbare; 0.01 ppm imazosulfuron, untreated 44.9)?
**A.** 41.4 cm

**Q.** And the “root length reduced by” value (rice cv. Nipponbare; 0.1 ppm imazosulfuron)?
**A.** 49%

**Q.** What about the “Shoot Length” value (rice cv. Nipponbare; 0.1 ppm imazosulfuron, untreated 11.4) of the same compound?
**A.** 8.6 cm

**Q.** And the “Total Root Length” value (rice cv. Nipponbare; 0.1 ppm imazosulfuron, untreated 44.9)?
**A.** 23.1 cm

**Q.** What about the “shoot length reduced by” value (rice cv. Nipponbare; 1 ppm imazosulfuron) of the same compound?
**A.** 86%

**Q.** And the “Shoot Length” value (rice cv. Nipponbare; 1 ppm imazosulfuron, untreated 11.4)?
**A.** 1.6 cm

**Q.** And the “Total Root Length” value (rice cv. Nipponbare; 1 ppm imazosulfuron, untreated 44.9)?
**A.** 4.9 cm

**Q.** With CCc1cccc(C)c1N(C(=O)CCl)C(C)COC (stereo not drawn) [Metolachlor, metolachlor, reference compound] as the compound, how does the “Shoot Length” value (rice cv. Cheniere [1]; 1 ppm metolachlor, 0 ppm PESA salt, untreated 3.7) read?
**A.** 3.6 cm

**Q.** What about the “Root Length” value (rice cv. Cheniere [1]; 1 ppm metolachlor, 0 ppm PESA salt, untreated 9.3) of the same compound?
**A.** 8.2 cm

**Q.** What about the “decrease in root length” value (rice cv. Cheniere [1]; 10 ppm metolachlor) of the same compound?
**A.** 60%

**Q.** And the “Shoot Length” value (rice cv. Cheniere [1]; 10 ppm metolachlor, 0 ppm PESA salt, untreated 3.7)?
**A.** 0.9 cm

**Q.** And the “Root Length” value (rice cv. Cheniere [1]; 10 ppm metolachlor, 0 ppm PESA salt, untreated 9.3)?
**A.** 3.7 cm

**Q.** What about the “Shoot Length” value (rice cv. Cheniere [1]; 100 ppm metolachlor, 0 ppm PESA salt, untreated 3.7) of the same compound?
**A.** 0.6 cm

**Q.** What about the “Root Length” value (rice cv. Cheniere [1]; 100 ppm metolachlor, 0 ppm PESA salt, untreated 9.3) of the same compound?
**A.** 1.6 cm

**Q.** Which results are given for CCC(CC)Nc1c([N+](=O)[O-])cc(C)c(C)c1[N+](=O)[O-] [Pendimethalin, pendimethalin, reference compound]?
**A.** Shoot Length (rice cv. Cheniere [1]; 10 ppm pendimethalin, 0 ppm PESA salt, untreated 3.4): 3.4 cm; Root Length (rice cv. Cheniere [1]; 10 ppm pendimethalin, 0 ppm PESA salt, untreated 8.5): 8.3 cm; Shoot Length (rice cv. Cheniere [1]; [5]): 1.3 cm; Root Length (rice cv. Cheniere [1]; [6]): 2.9 cm; root length reduced by (rice cv. Cheniere [1]; 100 ppm pendimethalin): 70%; Shoot Length (rice cv. Cheniere [1]; 100 ppm pendimethalin, 0 ppm PESA salt, untreated 3.4): 1.0 cm; Root Length (rice cv. Cheniere [1]; 100 ppm pendimethalin, 0 ppm PESA salt, untreated 8.5): 2.5 cm; Shoot Length (rice cv. Cheniere [1]; 500 ppm pendimethalin, 0 ppm PESA salt, untreated 3.4): 0.5 cm; Root Length (rice cv. Cheniere [1]; 500 ppm pendimethalin, 0 ppm PESA salt, untreated 8.5): 0.5 cm; root length decreased by (rice cv. Cheniere [1]; [7]): 75%; shoot length decreased by (rice cv. Cheniere [1]; [7]): 67%
